Source: PubChem BioAssay AID330 (DTP/NCI, 2004)
Several values for one entry are separate records, joined by “and”; a condition that tells them apart may be missing. Equal entries are not always repeated. Toxic doses and inconclusive results are not listed.

Tested on: P388 leukemia ip, CD2F1 mice, survival T/C
Assay: NCI In Vivo Anticancer Drug Screen. Data for tumor model P388 Leukemia (intraperitoneal) in CD2F1 (CDF1) mice
Details: endpoint: median survival time, higher = longer survival
Outline: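 Mice carrying the transplanted tumor received test compound or vehicle. Survival was recorded in each group, and the value is the treated-group measurement divided by that of the vehicle-treated control group.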

[1] = dose: 50.0 mg/kg/injection, schedule: Q01DX005 (ip), vehicle: saline with Tween-80
[2] = dose: 100.0 mg/kg/injection, schedule: Q01DX005 (ip), vehicle: saline with Tween-80
[3] = dose: 200.0 mg/kg/injection, schedule: Q01DX005 (ip), vehicle: saline with Tween-80
[4] = dose: 60.0 mg/kg/injection, schedule: Q01DX005 (ip), vehicle: saline with Tween-80
[5] = dose: 120.0 mg/kg/injection, schedule: Q01DX005 (ip), vehicle: saline with Tween-80
[6] = dose: 240.0 mg/kg/injection, schedule: Q01DX005 (ip), vehicle: saline with Tween-80

For `CCCCCC(C(=O)OCC)/C(C)=N\NC(N)=S` (centres undefined), the T/C (dose: 60.0 mg/kg/injection, schedule: Q01DX005 (ip), vehicle: Klucel (hydroxypropylcellulose) (HPC)) was 100 % of control, the T/C (dose: 120.0 mg/kg/injection, schedule: Q01DX005 (ip), vehicle: Klucel (hydroxypropylcellulose) (HPC)) was 98 % of control and the T/C (dose: 240.0 mg/kg/injection, schedule: Q01DX005 (ip), vehicle: Klucel (hydroxypropylcellulose) (HPC)) was 100 % of control.
With `CCOC1OCN(CCc2ccccc2)CC1(C)C` (centres undefined) the T/C (dose: 50.0 mg/kg/injection, schedule: Q01DX009 (ip), vehicle: saline with Tween-80) was 108 % of control, the T/C (dose: 100.0 mg/kg/injection, schedule: Q01DX009 (ip), vehicle: saline with Tween-80) was 119 % of control and the T/C (dose: 200.0 mg/kg/injection, schedule: Q01DX009 (ip), vehicle: saline with Tween-80) was 118 % of control.
For `Cc1c(C)[n+](=O)c2ccc(/C=[N+](\C)[O-])cc2n1[O-]`, the T/C (dose: 50.0 mg/kg/injection, schedule: Q01DX009 (ip), vehicle: Klucel (hydroxypropylcellulose) (HPC)) was 98 % of control, the T/C (dose: 100.0 mg/kg/injection, schedule: Q01DX009 (ip), vehicle: Klucel (hydroxypropylcellulose) (HPC)) was 100 % of control and the T/C (dose: 200.0 mg/kg/injection, schedule: Q01DX009 (ip), vehicle: Klucel (hydroxypropylcellulose) (HPC)) was 101 % of control.
For `NCCn1[nH]c(=O)c2ccncc2c1=O`, the T/C (dose: 100.0 mg/kg/injection, schedule: Q04DX002 (ip), vehicle: saline with Tween-80) was 94 % of control, the T/C (dose: 200.0 mg/kg/injection, schedule: Q04DX002 (ip), vehicle: saline with Tween-80) was 92 % of control and the T/C (dose: 400.0 mg/kg/injection, schedule: Q04DX002 (ip), vehicle: saline with Tween-80) was 92 % of control.
With `O=C(O)c1cccc2c1-c1ccccc1C2=O` the T/C (dose: 12.5 mg/kg/injection, schedule: Q01DX005 (ip), vehicle: Klucel (hydroxypropylcellulose) (HPC)) was 94 % of control, the T/C (dose: 25.0 mg/kg/injection, schedule: Q01DX005 (ip), vehicle: Klucel (hydroxypropylcellulose) (HPC)) was 99 % of control and the T/C (dose: 50.0 mg/kg/injection, schedule: Q01DX005 (ip), vehicle: Klucel (hydroxypropylcellulose) (HPC)) was 97 % of control. The T/C (dose: 100.0 mg/kg/injection, schedule: Q01DX005 (ip), vehicle: Klucel (hydroxypropylcellulose) (HPC)) was 100 % of control and the T/C (dose: 200.0 mg/kg/injection, schedule: Q01DX005 (ip), vehicle: Klucel (hydroxypropylcellulose) (HPC)) was 103 % of control.
In the case of `COc1ccc2ncc(COC(C)=O)c(C)c2c1`, the T/C [1] is reported as 99 % of control, the T/C [2] is reported as 99 % of control and the T/C [3] is reported as 93 % of control.
In the case of `COC(=O)c1nnn(-c2ccc(Cl)cc2Cl)c1C(=O)c1ccc(Cl)c(Cl)c1`, the T/C [4] is reported as 101 % of control, the T/C [5] is reported as 100 % of control and the T/C [6] is reported as 95 % of control.
In the case of `C=CC1CCCCC1=O` (centres undefined), the T/C [1] is reported as 110 % of control, the T/C [2] is reported as 111 % of control and the T/C [3] is reported as 111 % of control.
`CSc1nc2[nH]cnc(=S)c2[nH]1` was tested, and the T/C (dose: 6.25 mg/kg/injection, schedule: Q04DX003 (ip), vehicle: saline with Tween-80) was 90 % of control, the T/C (dose: 12.5 mg/kg/injection, schedule: Q04DX003 (ip), vehicle: saline with Tween-80) was 90 % of control and the T/C (dose: 25.0 mg/kg/injection, schedule: Q04DX003 (ip), vehicle: saline with Tween-80) was 109 % of control.
For `CCCC[n+]1c(/C=C\c2c(OC)cc(OC)cc2OC)ccc2ccccc21`, the T/C (dose: 0.19 mg/kg/injection, schedule: Q01DX009 (ip), vehicle: Klucel (hydroxypropylcellulose) (HPC)) was 115 % of control, the T/C (dose: 0.39 mg/kg/injection, schedule: Q01DX009 (ip), vehicle: Klucel (hydroxypropylcellulose) (HPC)) was 115 % of control and 122 % of control and the T/C (dose: 0.78 mg/kg/injection, schedule: Q01DX009 (ip), vehicle: Klucel (hydroxypropylcellulose) (HPC)) was 105 % of control.
`CNP1(NC)=N[P@@](NC)(N2CC2)=NP(NC)(N2CC2)=N1` (some centres undefined) was tested, and the T/C (dose: 1.87 mg/kg/injection, schedule: Q01DX005 (ip), vehicle: saline) was 102 % of control, the T/C (dose: 7.5 mg/kg/injection, schedule: Q01DX005 (ip), vehicle: saline) was 158 % of control and 185 % of control and the T/C (dose: 15.0 mg/kg/injection, schedule: Q01DX005 (ip), vehicle: saline) was 171 % of control and 227 % of control.
`COC(=O)Cc1cc(=O)[nH][nH]1` was tested, and the T/C (dose: 50.0 mg/kg/injection, schedule: Q01DX001 (ip), vehicle: suspension in saline) was 93 % of control, the T/C (dose: 100.0 mg/kg/injection, schedule: Q01DX001 (ip), vehicle: suspension in saline) was 95 % of control and the T/C (dose: 200.0 mg/kg/injection, schedule: Q01DX001 (ip), vehicle: suspension in saline) was 86 % of control.
`CCC1=C(C)c2cc3[n-]c(cc4nc(cc5[n-]c(cc1n2)c(C)c5CCC(=O)OC)C(CCC(=O)OC)=C4C)c(C)c3CC.[Ni+2]` was tested, and the T/C (dose: 18.75 mg/kg/injection, schedule: Q01DX009 (ip), vehicle: saline with Tween-80) was 87 % of control, the T/C (dose: 37.5 mg/kg/injection, schedule: Q01DX009 (ip), vehicle: saline with Tween-80) was 87 % of control and the T/C (dose: 75.0 mg/kg/injection, schedule: Q01DX009 (ip), vehicle: saline with Tween-80) was 94 % of control.
For `Cc1cccc(NC(=O)C(=O)C(C#N)c2c(Cl)cccc2Cl)c1C` (centres undefined), the T/C [4] was 102 % of control, the T/C [5] was 96 % of control and the T/C [6] was 100 % of control.
